Test results from ChEMBL document CHEMBL1201862, “PubChem BioAssay data set” (2004).
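Five compound concentrations were applied to cells in 96-well plates for 48 hours; endpoints were derived by simple linear interpolation of the resulting dose-response curve. Abbreviation: GI50, concentration required for 50% inhibition of growth.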 Active and inactive are the calls of the source. Rule as the data show it: active = GI50 up to about 1.1 µM and inactive = higher.

How the values were obtained:
Test in all cases: DTP human tumour cell line panel, 48 h
HCT-15 = system: HCT-15
PC-3 = system: PC-3
COLO 205 = system: COLO 205
SNB-75 = system: SNB-75
HL-60 = system: HL-60
MDA-MB-435 = system: MDA-MB-435
OVCAR-5 = system: OVCAR-5
NCI-H522 = system: NCI-H522
786-0 = system: 786-0
M14 = system: M14
SF-268 = system: SF-268
SNB-19 = system: SNB-19
SK-MEL-28 = system: SK-MEL-28
OVCAR-4 = system: OVCAR-4
U-251 = system: U-251
IGROV-1 = system: IGROV-1
ACHN = system: ACHN
NCI-H226 = system: NCI-H226
CCRF-CEM = system: CCRF-CEM
Hs-578T = system: Hs-578T

Compound | GI50 (HCT-15) [µM] | GI50 (PC-3) | GI50 (COLO 205) | GI50 (SNB-75) | GI50 (HL-60) | GI50 (MDA-MB-435) | GI50 (OVCAR-5) | GI50 (NCI-H522) | GI50 (786-0) | GI50 (M14) | GI50 (SF-268) | GI50 (SNB-19) | GI50 (SK-MEL-28) | GI50 (OVCAR-4) | GI50 (U-251) | GI50 (IGROV-1) | GI50 (ACHN) | GI50 (NCI-H226) | GI50 (CCRF-CEM) | GI50 (Hs-578T)
CCOC(=O)c1c(SC(=O)c2ccc(C(C)(C)C)cc2)n(-c2ccccc2)c(=S)n(-c2ccccc2)c1=O | > 100 | > 100 µM (inactive) | > 100 µM (inactive) | > 100 µM (inactive) | > 100 µM (inactive) | > 100 µM (inactive) | > 100 µM (inactive) | > 100 µM (inactive) | > 100 µM (inactive) | > 100 µM (inactive) | > 100 µM (inactive) | > 100 µM (inactive) | > 100 µM (inactive) | > 100 µM (inactive) | > 100 µM (inactive) | > 100 µM (inactive) | > 100 µM (inactive) | > 100 µM (inactive) | 29.7 µM (inactive) | > 100 µM (inactive)
Cc1ccc2c(O)cc(-c3csc4ccccc34)nc2n1 | < 0.0151 | < 0.01 µM (active) | 0.0239 µM (active) | < 0.01 µM (active) | < 0.01 µM (active) | < 0.01 µM (active) | 0.0358 µM (active) | < 0.01 µM (active) | < 0.01 µM (active) | < 0.01 µM (active) | 0.018 µM (active) | < 0.01 µM (active) |  |  | < 0.01 µM (active) | 0.0362 µM (active) | < 0.01 µM (active) | 0.0174 µM (active) | < 0.01 µM (active) | 0.0101 µM (active)
C/C(=N\NC(=S)N1CCC1)c1ccccn1 | < 0.0219 | 0.0512 µM (active) | 0.01 µM (active) | 0.838 µM (active) | 0.01 µM (active) | 0.0264 µM (active) |  | < 0.0497 µM (active) | < 0.0239 µM (active) | 0.01 µM (active) | 0.824 µM (active) | 0.261 µM (active) | 0.425 µM (active) |  | 0.01 µM (active) | 0.01 µM (active) | 0.01 µM (active) | 0.293 µM (active) | 0.01 µM (active) | 4.06 µM (inactive)
CSC1=C(C#N)C(=O)N(c2ccc(C)cc2)C(=S)C1C#N (stereo not given) | > 100 | > 100 µM (inactive) | > 100 µM (inactive) | 77.1 µM (inactive) | 63.8 µM (inactive) | > 100 µM (inactive) | > 100 µM (inactive) | > 100 µM (inactive) | > 100 µM (inactive) | > 100 µM (inactive) | > 100 µM (inactive) | > 100 µM (inactive) | > 100 µM (inactive) | > 100 µM (inactive) | > 100 µM (inactive) | > 100 µM (inactive) | > 100 µM (inactive) | > 100 µM (inactive) | > 100 µM (inactive) | > 100 µM (inactive)
COC(NC(N)=O)C(=O)O (stereo not given) | > 100 | > 100 µM (inactive) | > 100 µM (inactive) | > 100 µM (inactive) | 0.495 µM (active) | > 100 µM (inactive) | > 100 µM (inactive) | > 100 µM (inactive) | > 100 µM (inactive) | > 100 µM (inactive) | > 100 µM (inactive) | > 100 µM (inactive) | > 100 µM (inactive) | > 100 µM (inactive) | > 100 µM (inactive) | > 100 µM (inactive) | > 100 µM (inactive) | > 100 µM (inactive) | 11 µM (inactive) | > 100 µM (inactive)
CCOC(=O)c1cn2c(ccc3sc4ccccc4c(=O)c32)n1 | > 100 | > 100 µM (inactive) | > 100 µM (inactive) | > 100 µM (inactive) | > 100 µM (inactive) | > 100 µM (inactive) | > 100 µM (inactive) | > 100 µM (inactive) | > 100 µM (inactive) |  | > 100 µM (inactive) | > 100 µM (inactive) | > 100 µM (inactive) |  | > 100 µM (inactive) | > 100 µM (inactive) | > 100 µM (inactive) | > 100 µM (inactive) | > 100 µM (inactive) | > 100 µM (inactive)
Clc1cc2nnn(C3CCCO3)c2cc1Cl (stereo not given) | > 100 | > 100 µM (inactive) | > 100 µM (inactive) | 20 µM (inactive) | > 100 µM (inactive) | > 100 µM (inactive) | > 100 µM (inactive) | > 100 µM (inactive) | > 100 µM (inactive) | > 100 µM (inactive) | > 100 µM (inactive) |  |  |  | > 100 µM (inactive) | > 100 µM (inactive) |  | > 100 µM (inactive) | > 100 µM (inactive) | 62.7 µM (inactive)
Cc1ccc(/N=c2/oc3c(ccc4ccccc43)nc2Nc2ccc(C)cc2)cc1 | > 100 | > 100 µM (inactive) | > 100 µM (inactive) | > 100 µM (inactive) | > 100 µM (inactive) | > 100 µM (inactive) | > 100 µM (inactive) | > 100 µM (inactive) | > 100 µM (inactive) |  | > 100 µM (inactive) | > 100 µM (inactive) | > 100 µM (inactive) | > 100 µM (inactive) | > 100 µM (inactive) | > 100 µM (inactive) | 80.4 µM (inactive) | > 100 µM (inactive) | > 100 µM (inactive) | > 100 µM (inactive)
C#CCCOC(=O)CC1=C(C)/C(=C/c2ccc([S+](C)[O-])cc2)c2ccc(F)cc21 (stereo not given) | 12.9 | 11.3 µM (inactive) | 15.2 µM (inactive) | 16.3 µM (inactive) | 5.79 µM (inactive) | 4.67 µM (inactive) | 34.2 µM (inactive) | 17.3 µM (inactive) | 19.8 µM (inactive) | 16.2 µM (inactive) | 20.6 µM (inactive) | 13.6 µM (inactive) |  | 19.2 µM (inactive) | 15 µM (inactive) | 20.8 µM (inactive) | 19.7 µM (inactive) | 19 µM (inactive) | 15 µM (inactive) | 13.5 µM (inactive)
O=c1c(C(c2ccc(-c3ccccc3)cc2)c2c(O)oc3ccccc3c2=O)c(O)oc2ccccc12 | 19.1 | 24.2 µM (inactive) | 34.6 µM (inactive) | 24.5 µM (inactive) | 23.2 µM (inactive) | 22.8 µM (inactive) |  | 24 µM (inactive) | 26.9 µM (inactive) |  | 21.8 µM (inactive) | 30.5 µM (inactive) | 16.3 µM (inactive) | 35.1 µM (inactive) | 44.8 µM (inactive) | 34.8 µM (inactive) | 26.7 µM (inactive) | 23.2 µM (inactive) | 31.3 µM (inactive) | 24.4 µM (inactive)
Cc1ccc(Nc2nc3[nH]ccc3c(=O)[nH]2)cc1 | 87.5 | 37.8 µM (inactive) | > 100 µM (inactive) | 2.24 µM (inactive) | 75.5 µM (inactive) | > 100 µM (inactive) | > 100 µM (inactive) | > 100 µM (inactive) | > 100 µM (inactive) | > 100 µM (inactive) | 65.3 µM (inactive) | 96.2 µM (inactive) |  | > 100 µM (inactive) | > 100 µM (inactive) | > 100 µM (inactive) | > 100 µM (inactive) | > 100 µM (inactive) | > 100 µM (inactive) | 35.8 µM (inactive)
